Source: patent US20240383915A1, “OXAZEPINE COMPOUNDS AND USES THEREOF IN THE TREATMENT OF CANCER” (Genentech, Inc., priority 2021, published 2024)

Key:
KRas(G12V) = KRas(G12V) (Homo sapiens (Human), UniProt P01116, G12V); assay: KRas(G12V) GDP HTRF (BODIPY-GDP exchange TR-FRET); assay type: biochemical
KRas = KRas (Homo sapiens (Human), UniProt P01116); assay: KRas GDP HTRF (BODIPY-GDP exchange TR-FRET); assay type: biochemical
Method in brief: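 Inhibition of SOS1-mediated exchange of BODIPY-GDP on KRAS G12D, started with 3 nM recombinant human SOS1 and 300 nM BODIPY-GDP and read after 60 min. TR-FRET excitation 337 nm, ratio 520/490 nm ×10,000. IC50 from 4-parameter Hill fit of normalized data.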

SW480 cells = assay: SW480 proliferation assay; assay type: cell-based; details: Homo sapiens, SW480, SW480; read-out: SW480 Prolif IC50 (G12V)
PC-9 cells = assay: PC9 proliferation assay; assay type: cell-based, human; details: Homo sapiens, PC-9, PC9; read-out: PC9 Prolif IC50 (G12V)
KRAS G12D = KRAS G12D (Homo sapiens (Human), UniProt P01116, G12D); assay: KRas (G12D) GDP HTRF (BODIPY-GDP exchange TR-FRET); assay type: biochemical
Description: (§1) KRAS Biochemical Assay—BODIPY-GDP Exchange TR-FRET. Biochemical compound potencies were assessed by evaluating inhibition of SOS1-mediated nucleotide exchange in KRAS G12D. The SOS1-promoted exchange of fluorescently-labeled GDP (BODIPY-GDP) was monitored by time-resolved fluorescence resonance energy transfer (TR-FRET). Compounds solubilized in DMSO were dispensed as concentration series into 384-well white assay plates. A preformed complex of biotin-tagged recombinant human KRAS (1.5 nM mutant G12D or wild type) and 0.15 nM terbium-labeled streptavidin (CisBIO) prepared in 10 μL/well assay buffer (20 mM HEPES, pH 7.5, 50 mM NaCl, 10 mM MgCl2, 0.01% Tween-20 and 1 mM dithiothreitol) was added and allowed to incubate for 10-minutes. The reaction was initiated with the addition of 5 μL of 3 nM recombinant human SOS1 and 300 nM BODIPY-GDP in assay buffer. After a 60-minute incubation, the fluorescence was measured with excitation at 337 nm and emission at 490 and 520 nm. The TR-FRET ratio was determined as the fluorescence at 520 nm divided by the fluorescence at 490 nm multiplied by 10,000. […] The normalized TR-FRET results were plotted against compound concentration, and the data fit to a 4-parameter Hill equation to determine the IC50 values.

KRAS wild type = KRAS wild type (Homo sapiens (Human), UniProt P01116); assay: KRas (wt) GDP HTRF (BODIPY-GDP exchange TR-FRET); assay type: biochemical
Description: as §1

Sequence of KRas (P01116-2 other isoform, or with tags, fused parts or gaps): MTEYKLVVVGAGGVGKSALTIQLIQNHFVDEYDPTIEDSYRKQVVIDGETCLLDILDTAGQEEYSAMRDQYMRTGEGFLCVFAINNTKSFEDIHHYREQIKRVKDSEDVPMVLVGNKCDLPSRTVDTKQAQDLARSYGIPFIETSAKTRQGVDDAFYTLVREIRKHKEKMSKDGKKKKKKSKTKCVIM
Sequence of KRas(G12V) (P01116-2 other isoform, or with tags, fused parts or gaps G12V): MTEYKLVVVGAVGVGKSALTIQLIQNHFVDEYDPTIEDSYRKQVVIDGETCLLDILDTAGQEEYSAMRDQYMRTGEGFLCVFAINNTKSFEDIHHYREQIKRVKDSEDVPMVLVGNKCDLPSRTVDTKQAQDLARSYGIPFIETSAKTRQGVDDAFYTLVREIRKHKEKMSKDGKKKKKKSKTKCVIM
Sequence of KRAS wild type (P01116-2 other isoform, or with tags, fused parts or gaps): as the sequence (P01116-2 other isoform, or with tags, fused parts or gaps) above
Sequence of KRAS G12D (P01116-2 other isoform, or with tags, fused parts or gaps G12D): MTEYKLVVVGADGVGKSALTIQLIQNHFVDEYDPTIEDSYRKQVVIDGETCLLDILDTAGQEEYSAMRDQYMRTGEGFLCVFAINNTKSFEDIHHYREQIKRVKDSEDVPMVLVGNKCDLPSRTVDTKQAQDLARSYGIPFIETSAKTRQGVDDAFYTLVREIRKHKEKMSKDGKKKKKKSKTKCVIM

SMILES	IC50 (KRas(G12V)) [nM]	IC50 (KRas) [nM]	IC50 (SW480 cells) [nM]	IC50 (PC-9 cells) [nM]	IC50 (KRAS G12D) [nM]	IC50 (KRAS wild type) [nM]
Cc1cc(N)nc(-c2cc3nc(OC[C@@]45CCCN4C[C@H](F)C5)nc4c3c(c2Cl)OCCN4Cc2cccnc2N)c1C(F)(F)F [Example 60, 6-(4-((2-aminopyridin-3-yl)methyl)-8-chloro-2-(((2R,7aS)-2-fluorotetrahydro-1H-pyrrolizin-7a(5H)-yl)methoxy)-5,6-dihydro-4H-[1,4]oxazepino[5,6,7-de]quinazolin-9-yl)-4-methyl-5-(trifluoromethyl)pyridin-2-amine]	0.42	0.48	230	2700	–	–
Nc1ncccc1CN1CCOc2c(Cl)c(-c3cc(O)cc4ccccc34)cc3nc(OC[C@@]45CCCN4C[C@H](F)C5)nc1c23 [Example 61, 4-(4-((2-aminopyridin-3-yl)methyl)-8-chloro-2-(((2R,7aS)-2-fluorotetrahydro-1H-pyrrolizin-7a(5H)-yl)methoxy)-5,6-dihydro-4H-[1,4]oxazepino[5,6,7-de]quinazolin-9-yl)naphthalen-2-ol]	0.86	4.3	940	3100	–	–
Nc1ncccc1CN1CCOc2c(Cl)c(-c3cccc4ccccc34)cc3nc(OC[C@@]45CCCN4C[C@H](F)C5)nc1c23 [Example 62, 3-((8-chloro-2-(((2R,7aS)-2-fluorotetrahydro-1H-pyrrolizin-7a(5H)-yl)methoxy)-9-(naphthalen-1-yl)-5,6-dihydro-4H-[1,4]oxazepino[5,6,7-de]quinazolin-4-yl)methyl)pyridin-2-amine]	12	96	4900	3400	–	–
Nc1ncccc1CN1CCOc2c(Cl)c(-c3cccc4c3CCC4)cc3nc(OC[C@@]45CCCN4C[C@H](F)C5)nc1c23 [Example 63, 3-((8-chloro-9-(2,3-dihydro-1H-inden-4-yl)-2-(((2R,7aS)-2-fluorotetrahydro-1H-pyrrolizin-7a(5H)-yl)methoxy)-5,6-dihydro-4H-[1,4]oxazepino[5,6,7-de]quinazolin-4-yl)methyl)pyridin-2-amine]	8.7	69	3300	4000	–	–
Nc1ncccc1CN1CCOc2c(Cl)c(-c3cccc(CO)c3)cc3nc(OC[C@@]45CCCN4C[C@H](F)C5)nc1c23 [Example 64, (3-(4-((2-aminopyridin-3-yl)methyl)-8-chloro-2-(((2R,7aS)-2-fluorotetrahydro-1H-pyrrolizin-7a(5H)-yl)methoxy)-5,6-dihydro-4H-[1,4]oxazepino[5,6,7-de]quinazolin-9-yl)phenyl)methanol]	290	2700	17000	5400	–	–
C=C1CN2CCC2(COc2nc3c4c(c(Cl)c(-c5nc(N)cc(C)c5C(F)(F)F)c(F)c4n2)OCCN3[C@H](C)c2cccnc2N)C1 (stereo partly drawn) [Example 118, (6R)-6-(4-((R)-1-(2-aminopyridin-3-yl)ethyl)-8-chloro-10-fluoro-2-((3-methylene-1-azabicyclo[3.2.0]heptan-5-yl)methoxy)-5,6-dihydro-4H-[1,4]oxazepino[5,6,7-de]quinazolin-9-yl)-4-methyl-5-(trifluoromethyl)pyridin-2-amine]	0.06	0.19	33	730	–	–
C[C@H](c1cccnc1N)N1CCOc2c(Cl)c(-c3cc(O)cc4ccccc34)c(F)c3nc(OC[C@@]45CCCN4C[C@H](F)C5)nc1c23 [Example 119, 4-(4-((R)-1-(2-aminopyridin-3-yl)ethyl)-8-chloro-10-fluoro-2-(((2R,7aS)-2-fluorotetrahydro-1H-pyrrolizin-7a(5H)-yl)methoxy)-5,6-dihydro-4H-[1,4]oxazepino[5,6,7-de]quinazolin-9-yl)naphthalen-2-ol]	0.05	0.14	16	3000	–	–
Cc1cc(N)nc(-c2c(Cl)c3c4c(nc(OCC5CCN(C)C5)nc4c2F)N([C@H](C)c2cccnc2N)CCO3)c1C(F)(F)F (stereo partly drawn) [Example 134, 6-((9R)-4-((R)-1-(2-aminopyridin-3-yl)ethyl)-8-chloro-10-fluoro-2-((1-methylpyrrolidin-3-yl)methoxy)-5,6-dihydro-4H-[1,4]oxazepino[5,6,7-de]quinazolin-9-yl)-4-methyl-5-(trifluoromethyl)pyridin-2-amine]	0.08	0.21	590	1600	–	–
Cc1cc(N)nc(-c2c(Cl)c3c4c(nc(OCC5CCCN(C)C5)nc4c2F)N([C@H](C)c2cccnc2N)CCO3)c1C(F)(F)F (stereo partly drawn) [Example 137, 6-((9R)-4-((R)-1-(2-aminopyridin-3-yl)ethyl)-8-chloro-10-fluoro-2-((1-methylpiperidin-3-yl)methoxy)-5,6-dihydro-4H-[1,4]oxazepino[5,6,7-de]quinazolin-9-yl)-4-methyl-5-(trifluoromethyl)pyridin-2-amine]	0.07	0.159	140	1100	–	–
Cc1cc(N)nc(-c2c(Cl)c3c4c(nc(OCCC5CCCN5C)nc4c2F)N([C@H](C)c2cccnc2N)CCO3)c1C(F)(F)F (stereo partly drawn) [Example 139, 6-((9R)-4-((R)-1-(2-aminopyridin-3-yl)ethyl)-8-chloro-10-fluoro-2-(2-(1-methylpyrrolidin-2-yl)ethoxy)-5,6-dihydro-4H-[1,4]oxazepino[5,6,7-de]quinazolin-9-yl)-4-methyl-5-(trifluoromethyl)pyridin-2-amine]	0.08	0.205	240	830	–	–
Cc1cc(N)nc(-c2c(Cl)c3c4c(nc(OCC5COCCN5C)nc4c2F)N([C@H](C)c2cccnc2N)CCO3)c1C(F)(F)F (stereo partly drawn) [Example 140, 6-((9R)-4-((R)-1-(2-aminopyridin-3-yl)ethyl)-8-chloro-10-fluoro-2-((4-methylmorpholin-3-yl)methoxy)-5,6-dihydro-4H-[1,4]oxazepino[5,6,7-de]quinazolin-9-yl)-4-methyl-5-(trifluoromethyl)pyridin-2-amine]	0.17	0.6	51	3800	–	–
Cc1cc(N)nc(-c2c(Cl)c3c4c(nc(OCC56COC(C5)C6)nc4c2F)N([C@H](C)c2cccnc2N)CCO3)c1C(F)(F)F [Example 141, 6-((R)-2-((2-oxabicyclo[2.1.1]hexan-4-yl)methoxy)-4-((R)-1-(2-aminopyridin-3-yl)ethyl)-8-chloro-10-fluoro-5,6-dihydro-4H-[1,4]oxazepino[5,6,7-de]quinazolin-9-yl)-4-methyl-5-(trifluoromethyl)pyridin-2-amine]	0.24	0.77	76	8100	–	–
COCC12COC(COc3nc4c5c(c(Cl)c(-c6nc(N)cc(C)c6C(F)(F)F)c(F)c5n3)OCCN4[C@H](C)c3cccnc3N)(C1)C2 [Example 149, 6-((R)-4-((R)-1-(2-aminopyridin-3-yl)ethyl)-8-chloro-10-fluoro-2-((4-(methoxymethyl)-2-oxabicyclo[2.1.1]hexan-1-yl)methoxy)-5,6-dihydro-4H-[1,4]oxazepino[5,6,7-de]quinazolin-9-yl)-4-methyl-5-(trifluoromethyl)pyridin-2-amine]	0.21	0.78	74	16000	–	–
Cc1cc(N)nc(-c2c(Cl)c3c4c(nc(OCC56COC(CF)(C5)C6)nc4c2F)N([C@H](C)c2cccnc2N)CCO3)c1C(F)(F)F [Example 154, 6-((R)-4-((R)-1-(2-aminopyridin-3-yl)ethyl)-8-chloro-10-fluoro-2-((1-(fluoromethyl)-2-oxabicyclo[2.1.1]hexan-4-yl)methoxy)-5,6-dihydro-4H-[1,4]oxazepino[5,6,7-de]quinazolin-9-yl)-4-methyl-5-(trifluoromethyl)pyridin-2-amine]	0.48	1.1	91	14000	–	–
Cc1cc(N)nc(-c2c(Cl)c3c4c(nc(OCC56CCC(CC5)OC6)nc4c2F)N([C@H](C)c2cccnc2N)CCO3)c1C(F)(F)F [Example 157, 6-((R)-2-((2-oxabicyclo[2.2.2]octan-4-yl)methoxy)-4-((R)-1-(2-aminopyridin-3-yl)ethyl)-8-chloro-10-fluoro-5,6-dihydro-4H-[1,4]oxazepino[5,6,7-de]quinazolin-9-yl)-4-methyl-5-(trifluoromethyl)pyridin-2-amine]	0.81	3.2	400	8200	–	–
C=C1CN2CCC[C@@]2(COc2nc3c4c(c(Cl)c(-c5c(F)ccc6cnn(C)c56)cc4n2)OCCN3CCN(C)C)C1 [Example 512]	–	–	–	–	174	1110
